The source of these data is patent US8796456B2, “Naphthalene diimide compounds” (University College London, priority 2007, dated 2014).

Structures are written as SMILES.

One assay relates to telomeric G-quadruplex. Type of assay: binding, human. The note with it: for FRET-Q ΔTm(0.5 μM): telomeric G-quadruplex sequence, 0.5 μM compound, maximum error ± 1° C. How it is done:
(§1) 50 μL of annealed DNA and 50 μL of compound per well were put into 96-well plates and processed in a DNA Engine Opticon (MJ Research). […] The raw data were imported into Origin 7.0 (OriginLab Corp.) and the graphs smoothed using a 10-point running average and subsequently normalised. For the determination of the melting temperature, the first derivative of the smoothed melting curve was calculated.
(§2) The initial assessment of the DNA stabilisation ability of the compounds was done using FRET. Four different DNA sequences were used—a model for the human telomeric G-quadruplex, a self-complementary duplex DNA hairpin and two sequences that are present in the promoter region of the CKIT gene. A FRET competition experiment was also run in which affinity for the telomeric G-quadruplex sequence was evaluated in presence of increasing concentrations of duplex DNA. These experiments allowed us to assess the selectivity of the ligands between quadruplex and duplex DNA.

In another assay the test system is ckit2 G-quadruplex. The assay can be described thus: FRET melting assay, ckit2 G-quadruplex. The conditions noted are these: ckit2 G-quadruplex sequence, 0.5 μM compound, maximum error ± 1° C. Type of assay: binding. How it is done: as §1, §2
The subject of a further assay is duplex DNA. Briefly: FRET melting assay, duplex DNA. Type of assay: binding. The note with it: duplex sequence, 0.5 μM compound, maximum error ± 1° C. How it is done:
50 μL of annealed DNA and 50 μL of compound per well were put into 96-well plates and processed in a DNA Engine Opticon (MJ Research). […] The raw data were imported into Origin 7.0 (OriginLab Corp.) and the graphs smoothed using a 10-point running average and subsequently normalised. For the determination of the melting temperature, the first derivative of the smoothed melting curve was calculated. The difference between the melting temperature at 0.5 μM of the compound and the melting temperature for the blank (ΔTm(0.5 μM)) was used for comparison.

The next assay relates to ckit1 G-quadruplex. Briefly: FRET melting assay, ckit1 G-quadruplex. The format is binding. The conditions noted are these: ckit1 G-quadruplex sequence, 0.5 μM compound, maximum error ± 1° C. How it is done:
as §1, §2

The test system of the next assay is HT-29 cells (colon). The assay can be described thus: SRB toxicity assay, HT-29. The conditions noted are these: Homo sapiens, 96 h exposure, HT-29D. The format is cell-based. The protocol:
(§3) Human cancer cell lines, breast (MCF7), lung (A549), colon (HT-29), gastric (HGC-27) and normal human lung fibroblast lines (WI-38) were purchased from American Type Cell Culture (ATCC). The GIST882 line was a gift from Dr Jonathan Fletcher. All cell lines except HGC27 and WI38 were maintained in Dulbecco's Modified Eagles Media containing 10% foetal bovine serum (Invitrogen, UK), […] hydrocortisone (Acros Chemicals, Loughborough, UK), 2 mM L-glutamine (Invitrogen, Netherlands), and non-essential amino-acids (Invitrogen, Netherlands), and incubated at 37° C., 5% CO2. The WI38 and HGC27 lines were maintained in minimum essential medium, prepared as above. All cell lines were routinely passaged at a ratio of 1:6.
(§4) Short-term growth inhibition was measured using the SRB assay as described previously. Briefly, cells were seeded (4000 cells/wells) into the wells of 96 well-plates in appropriate medium and incubated overnight to allow the cells to attach. Subsequently cells were exposed to freshly-made solutions of drugs and incubated for a further 96 h. Following this the cells were fixed with ice cold trichlo-acetic acid (TCA) (10%, w/v) for 30 min and stained with 0.4% SRB dissolved in 1% acetic acid for 15 min. All incubations were carried out at room temperature.

A further assay concerns the target telomerase. Briefly: Modified TRAP assay (telomerase inhibition). The format is biochemical.
The next assay has as its system MCF7 cells. The assay can be described thus: Senescence β-galactosidase staining in MCF7 cells. Type of assay: cell-based, human. The conditions noted are these: at 70 nM.
The next assay deals with HGC-27 cells (gastric). The assay can be described thus: SRB toxicity assay, HGC-27. The format is cell-based. The note with it: Homo sapiens, HGC-27, 96 h. How it is done: as §3, §4
Another assay deals with GIST882 cells. The assay can be described thus: SRB toxicity assay, GIST882. Type of assay: cell-based. The note with it: Homo sapiens, 96 h exposure. How it is done:
as §3, §4

Method for MCF7 cells: Senescence detection and quantification experiments were carried out using a commercially available kit (Senescence β-galactosidase staining kit, Cell Signalling Technology, MA, USA). 1×10^5 cells were seeded in a 35 mm well of a 6-well plate (Nunc, Denmark) in 2 ml of medium and compound to test. The cells were incubated for 24 hours. The medium was then removed and the cells were washed with PBS (1×2 ml). The cells were fixed by treating them with 1 ml of fixative solution (2% formaldehyde and 2% glutaraldehyde in PBS) for 15 minutes at RT. The fixative solution was then removed and the wells washed with PBS (2×2 ml). Freshly prepared staining solution (a mixture of 930 μL of 40 mM citric acid/sodium phosphate (pH 6.0), 0.15 M NaCl and 2 mM MgCl2, 10 μL of 500 mM potassium ferrocyanide, 10 μL of 500 mM potassium ferricyanide and 50 μL of 20 mg/ml 5-bromo-4-chloro-3-indolyl-μD-galactopyranoside in DMF) (1 ml) was added and the cells were incubated overnight. The senescent cells, detected by their blue pigmentation, were quantified under a light microscope.
Senescence phenotype was investigated in MCF7 cells treated for 1 week with sub-cytotoxic concentrations of a selection of compounds.
Method for telomerase: The TRAP assay was carried out in three steps with an initial primer elongation step by telomerase, a subsequent removal of the primer bound ligand and a final PCR amplification of the telomerase products. […] The PCR master mix was added to tubes containing freshly prepared compounds at various concentrations and to the negative control containing no drug. The initial elongation step was carried out for 10 min at 30° C., followed by a 94° C. for 5 min and a final maintenance of the mixture at 20° C. To purify the elongated product and to remove the bound ligands the QIAquick nucleotide purification kit (Qiagen) was used according to manufacturer's instructions. […] This was substituted with PCR-grade water in our experiments. The purified extended samples were then subject to PCR amplification. […] Fluorescence from drug samples were normalised against positive control containing protein only. All samples were corrected for background by subtracting the fluorescence reading of negative controls.

As for `CN(C)c1ccc(Nc2c3ccc(NC(=O)CCN4CCCC4)cc3nc3cc(NC(=O)CCN4CCCC4)ccc23)cc1` [BRACO19], the “concentration required to increase the melting temperature by 35° C.” value in the assay with telomeric G-quadruplex (G-quadruplex DNA, FRET) was determined as 2.5 µM.

Regarding `CN(C)CCN1C(=O)c2ccc3c4c(ccc(c24)C1=O)C(=O)N(CCN(C)C)C3=O` [Compound 33, N,N′-bis(3-(dimethylamino)ethylamino)-1,4,5,8-naphthalenetetracarboxylic acid diimide, reference compound], in the assay on ckit2 G-quadruplex, the “FRET-ckit2 ΔTm(0.5 μM)” value stood at 7.25 °C. In addition, the “FRET-d ΔTm(0.5 μM)” value in the assay on duplex DNA stood at 1 °C. For the same compound, the “FRET-ckit1 ΔTm(0.5 μM)” value in the assay on ckit1 G-quadruplex is 1.25 °C. In the assay with telomeric G-quadruplex, the “FRET-Q ΔTm(0.5 μM)” value was 3.2 °C.

For `CN(C)CCCN1C(=O)c2ccc3c4c(ccc(c24)C1=O)C(=O)N(CCCN(C)C)C3=O` [Compound 32, reference compound], the “FRET-ckit2 ΔTm(0.5 μM)” value with ckit2 G-quadruplex was determined as 7.75 °C. In addition, in the assay on duplex DNA, the “FRET-d ΔTm(0.5 μM)” value is 2.7 °C. In addition, the “FRET-ckit1 ΔTm(0.5 μM)” value with ckit1 G-quadruplex is 2.5 °C. In the assay with telomeric G-quadruplex, the “FRET-Q ΔTm(0.5 μM)” value was found to be 5.2 °C.

As to `CN(C)CCCNc1cc2c3c(c(NCCCN(C)C)cc4c3c1C(=O)N(CCCN(C)C)C4=O)C(=O)N(CCCN(C)C)C2=O` [Compound 12], the IC50 in the assay with HT-29 cells (colon) was 0.063 µM; with HGC-27 cells (gastric) it was 0.51 µM; in the assay on GIST882 cells, 1.3 µM. Also, at telomerase, the EC50 is 25 ± 2.5 µM. In the assay with ckit2 G-quadruplex, the “FRET-ckit2 ΔTm(0.5 μM)” value was 36.5 °C. Besides, the “FRET-d ΔTm(0.5 μM)” value with duplex DNA worked out at 4.5 °C. In addition, the “Senescence (% of cells) after 1 week (MCF7)” value with MCF7 cells is given as 35.0 ± 3 (at 70 nM) % of cells. In addition, the “FRET-ckit1 ΔTm(0.5 μM)” value in the assay on ckit1 G-quadruplex was found to be 29.75 °C. Moreover, the “FRET-Q ΔTm(0.5 μM)” value in the assay with telomeric G-quadruplex came out at 33.2 °C.

`CN(C)CCCNc1cc2c3c(ccc4c3c1C(=O)N(CCCN(C)C)C4=O)C(=O)N(CCCN(C)C)C2=O` [Compound 13] displayed an EC50 on telomerase of 17 ± 1.1 µM. Also, in the assay with ckit2 G-quadruplex, the “FRET-ckit2 ΔTm(0.5 μM)” value was 29 °C. Further, the “FRET-d ΔTm(0.5 μM)” value in the assay with duplex DNA came out at 12.5 °C. Further, the “FRET-ckit1 ΔTm(0.5 μM)” value in the assay with ckit1 G-quadruplex came to 23.5 °C. Moreover, the “FRET-Q ΔTm(0.5 μM)” value with telomeric G-quadruplex was 26.5 °C.
